Experimental data: patent US7192906B2, “Substituted pyrazole derivatives, production process thereof, and herbicide compositions containing the derivatives” (SDS Biotech K.K., priority 2001, dated 2007)

Columns and labels:
Format in all cases: in vivo
Setaria viridis [1] = assay: Test Example 2 upland soil treatment; settings: Table 5, upland soil treatment, index 0-5
Method: (§1) A plastic pot of 130 cm^2 was filled with upland soil. Subsequently, weed seeds of Setaria viridis, Digitaria adscendens, Chenopodium album and Stellaria media, and crop seeds of soybean (Glycine max) and wheat (Triticum aestivum), were sowed and covered with soil of about 1 cm thickness. On the next day after the sowing, the wettable powder prepared in Formulation Example 1 was diluted with water such that the amount of the active ingredient became 1 kg per hectare, and then uniformly applied to the soil surface. On the 21st day after the application, observation and evaluation were carried out according to the aforesaid criteria.
(§2) Herbicidal activity was evaluated based on the following criteria.
(§3) • 5: herbicidal effect of not less than 90%, or phytotoxicity of 90% or more • 4: herbicidal effect of not less than 70% and less than 90%, or phytotoxicity of 70% or more and less than 90% • 3: herbicidal effect of not less than 50% and less than 70%, or phytotoxicity of 50% or more and less than 70% • 2: herbicidal effect of not less than 30% and less than 50%, or phytotoxicity of 30% or more and less than 50% • 1: herbicidal effect of not less than 10% and less than 30%, or phytotoxicity of 10% or more and less than 30% • 0: herbicidal effect of not less than 0% and less than 10%, or phytotoxicity of 0% or more and less than 10%

Chenopodium album [2] = assay: Test Example 2 upland soil treatment; settings: Table 5, upland soil treatment, index 0-5
Method: as §1, §2, §3

Digitaria adscendens [3] = assay: Test Example 2 upland soil treatment; settings: Table 5, upland soil treatment, index 0-5
Method: as §1, §2, §3

Stellaria media [4] = assay: Test Example 2 upland soil treatment; settings: Table 5, upland soil treatment, index 0-5
Method: as §1, §2, §3

Setaria viridis [5] = assay: Test Example 1 upland field foliage treatment; settings: Table 4, upland field foliage treatment, index 0-5
Method in brief: (§4)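 Scores are visual 0–5 ratings of herbicidal effect or crop injury (0: under 10%; 5: 90% or more) taken 21 days after treatment. Plants grew from seed in upland soil for 14 days, then foliage received the compound as a water-diluted wettable powder at 1 kg/ha active ingredient.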

Chenopodium album [6] = assay: Test Example 1 upland field foliage treatment; settings: Table 4, upland field foliage treatment, index 0-5
Method in brief: as §4

Digitaria adscendens [7] = assay: Test Example 1 upland field foliage treatment; settings: Table 4, upland field foliage treatment, index 0-5
Method in brief: as §4

Stellaria media [8] = assay: Test Example 1 upland field foliage treatment; settings: Table 4, upland field foliage treatment, index 0-5
Method in brief: as §4

soybean (Glycine max) [9] = assay: Test Example 1 upland field foliage treatment, crop phytotoxicity; settings: Table 4, upland field foliage treatment, index 0-5
Method in brief: as §4

[10] = test system: wheat (Triticum aestivum); assay: as above; settings: Table 4, upland field foliage treatment, index 0-5
Method in brief: as §4

soybean (Glycine max) [11] = assay: Test Example 2 upland soil treatment, crop phytotoxicity; settings: Table 5, upland soil treatment, index 0-5
Method: as §1, §2, §3

[12] = test system: wheat (Triticum aestivum); assay: as above; settings: Table 5, upland soil treatment, index 0-5
Method: as §1, §2, §3

Row | SMILES | Herbicidal activity SV: Setaria viridis (Setaria viridis [1]) | Herbicidal activity CA: Chenopodium album (Chenopodium album [2]) | Herbicidal activity DA: Digitaria adscendens (Digitaria adscendens [3]) | Herbicidal activity SM: Stellaria media (Stellaria media [4]) | Herbicidal activity SV: Setaria viridis (Setaria viridis [5]) | Herbicidal activity CA: Chenopodium album (Chenopodium album [6]) | Herbicidal activity DA: Digitaria adscendens (Digitaria adscendens [7]) | Herbicidal activity SM: Stellaria media (Stellaria media [8]) | Herbicidal activity (phytotoxicity) GM: Soybean (Glycine max) (soybean (Glycine max) [9]) | Herbicidal activity (phytotoxicity) TA: Wheat (Triticum aestivum) [10] | Herbicidal activity (phytotoxicity) GM: Soybean (Glycine max) (soybean (Glycine max) [11]) | Herbicidal activity (phytotoxicity) TA: Wheat (Triticum aestivum) [12]
1 | CNC(=O)C(Cn1cc(C)c(-c2ccc(SC(F)(F)F)cc2)n1)=NOC [Compound 70] | 3 (herbicidal effect of not less than 50% and less than 70%, or phytotoxicity of 50% or more and less than 70%) | 4 (herbicidal effect of not less than 70% and less than 90%, or phytotoxicity of 70% or more and less than 90%) | 3 (herbicidal effect of not less than 50% and less than 70%, or phytotoxicity of 50% or more and less than 70%) | 4 (herbicidal effect of not less than 70% and less than 90%, or phytotoxicity of 70% or more and less than 90%) | 4 (herbicidal effect of not less than 70% and less than 90%, or phytotoxicity of 70% or more and less than 90%) | 5 (herbicidal effect of not less than 90%, or phytotoxicity of 90% or more) | 5 (herbicidal effect of not less than 90%, or phytotoxicity of 90% or more) | 4 (herbicidal effect of not less than 70% and less than 90%, or phytotoxicity of 70% or more and less than 90%) | 0 (herbicidal effect of not less than 0% and less than 10%, or phytotoxicity of 0% or more and less than 10%) | 0 (herbicidal effect of not less than 0% and less than 10%, or phytotoxicity of 0% or more and less than 10%) | 0 (herbicidal effect of not less than 0% and less than 10%, or phytotoxicity of 0% or more and less than 10%) | 0 (herbicidal effect of not less than 0% and less than 10%, or phytotoxicity of 0% or more and less than 10%)
2 | CNC(=O)C(Cn1cc(C)c(-c2ccc(C)c(F)c2)n1)=NOC [Compound 74] | 4 (herbicidal effect of not less than 70% and less than 90%, or phytotoxicity of 70% or more and less than 90%) | 5 (herbicidal effect of not less than 90%, or phytotoxicity of 90% or more) | 5 (herbicidal effect of not less than 90%, or phytotoxicity of 90% or more) | 5 (herbicidal effect of not less than 90%, or phytotoxicity of 90% or more) | 5 (herbicidal effect of not less than 90%, or phytotoxicity of 90% or more) | 5 (herbicidal effect of not less than 90%, or phytotoxicity of 90% or more) | 5 (herbicidal effect of not less than 90%, or phytotoxicity of 90% or more) | 5 (herbicidal effect of not less than 90%, or phytotoxicity of 90% or more) | 0 (herbicidal effect of not less than 0% and less than 10%, or phytotoxicity of 0% or more and less than 10%) | 0 (herbicidal effect of not less than 0% and less than 10%, or phytotoxicity of 0% or more and less than 10%) | 1 (herbicidal effect of not less than 10% and less than 30%, or phytotoxicity of 10% or more and less than 30%) | 0 (herbicidal effect of not less than 0% and less than 10%, or phytotoxicity of 0% or more and less than 10%)
3 | CNC(=O)C(Cn1cc(C)c(-c2ccc(F)c(C)c2)n1)=NOC [Compound 75] | 4 (herbicidal effect of not less than 70% and less than 90%, or phytotoxicity of 70% or more and less than 90%) | 5 (herbicidal effect of not less than 90%, or phytotoxicity of 90% or more) | 4 (herbicidal effect of not less than 70% and less than 90%, or phytotoxicity of 70% or more and less than 90%) | 5 (herbicidal effect of not less than 90%, or phytotoxicity of 90% or more) | 5 (herbicidal effect of not less than 90%, or phytotoxicity of 90% or more) | 5 (herbicidal effect of not less than 90%, or phytotoxicity of 90% or more) | 5 (herbicidal effect of not less than 90%, or phytotoxicity of 90% or more) | 5 (herbicidal effect of not less than 90%, or phytotoxicity of 90% or more) | 0 (herbicidal effect of not less than 0% and less than 10%, or phytotoxicity of 0% or more and less than 10%) | 0 (herbicidal effect of not less than 0% and less than 10%, or phytotoxicity of 0% or more and less than 10%) | 1 (herbicidal effect of not less than 10% and less than 30%, or phytotoxicity of 10% or more and less than 30%) | 0 (herbicidal effect of not less than 0% and less than 10%, or phytotoxicity of 0% or more and less than 10%)
4 | CNC(=O)C(Cn1cc(C)c(-c2ccc(F)cc2Cl)n1)=NOC [Compound 82] | 4 (herbicidal effect of not less than 70% and less than 90%, or phytotoxicity of 70% or more and less than 90%) | 4 (herbicidal effect of not less than 70% and less than 90%, or phytotoxicity of 70% or more and less than 90%) | 5 (herbicidal effect of not less than 90%, or phytotoxicity of 90% or more) | 5 (herbicidal effect of not less than 90%, or phytotoxicity of 90% or more) | 3 (herbicidal effect of not less than 50% and less than 70%, or phytotoxicity of 50% or more and less than 70%) | 4 (herbicidal effect of not less than 70% and less than 90%, or phytotoxicity of 70% or more and less than 90%) | 5 (herbicidal effect of not less than 90%, or phytotoxicity of 90% or more) | 4 (herbicidal effect of not less than 70% and less than 90%, or phytotoxicity of 70% or more and less than 90%) | 0 (herbicidal effect of not less than 0% and less than 10%, or phytotoxicity of 0% or more and less than 10%) | 0 (herbicidal effect of not less than 0% and less than 10%, or phytotoxicity of 0% or more and less than 10%) | 0 (herbicidal effect of not less than 0% and less than 10%, or phytotoxicity of 0% or more and less than 10%) | 0 (herbicidal effect of not less than 0% and less than 10%, or phytotoxicity of 0% or more and less than 10%)
